Our source for the IC50, ΔTm and EC50 values is paper PMC12621043, “Un-LOK-ing a New Approach for Conformational Selective Targeting of STK10 (LOK)” (ACS Medicinal Chemistry Letters, 2025).

In assay [1] the target is T1, STK10 (Homo sapiens, UniProt O94804).
T1 construct: purchased in-house DSF kinase panel (SGC-style construct names; the trailing letter is the construct ID)
The following applies: Figure 1; reference not given; read-out: STK10 in vitro IC50; cited from earlier work.

The test system of assay [2] is TIE2. Particulars: Figure 1; reference not given; read-out: TIE2 in vitro IC50; cited from earlier work.
Assay [3] has as its system BRK. Particulars: Figure 1; reference not given; read-out: BRK in vitro IC50; cited from earlier work.
Assay [4] addresses T2, SLK (Homo sapiens, UniProt Q9H2G2). The experiment in a line: PhosphoSens in vitro activity assay. The assay is classed as biochemical. Particulars: ATP 150 μM.
Assay [5] has as its target T2, SLK. The assay is described as follows: DSF Tm panel. The assay is classed as binding. The arrangement: purchased in-house DSF kinase panel (SGC-style construct names; the trailing letter is the construct ID). Particulars: 10 μM compound.
The target in assay [6] is T2, SLK. The assay is described as follows: NanoBRET target engagement assay. The assay is classed as cell-based. Also on record: has a greater impact on the full-length protein than on the kinase domains; host or cells: HEK293T (ATCC CRL-3216). The following applies: HEK293T cells. On the technique in general: Bioluminescence resonance energy transfer reports proximity on the nanometre scale.

For assay [7], the target named is T1, STK10. The assay is described as follows: DSF Tm panel. The assay is classed as binding. Particulars: 10 μM compound.
Assay [8] has as its target T1, STK10. The experiment in a line: PhosphoSens in vitro activity assay. The assay is classed as biochemical. Particulars: ATP 160 μM.

Read-outs that look alike come from different tables or passages of the source. Where only a bound is given, the exact number is not on record here.

T1 sequence (O94804 18-317 limits assumed): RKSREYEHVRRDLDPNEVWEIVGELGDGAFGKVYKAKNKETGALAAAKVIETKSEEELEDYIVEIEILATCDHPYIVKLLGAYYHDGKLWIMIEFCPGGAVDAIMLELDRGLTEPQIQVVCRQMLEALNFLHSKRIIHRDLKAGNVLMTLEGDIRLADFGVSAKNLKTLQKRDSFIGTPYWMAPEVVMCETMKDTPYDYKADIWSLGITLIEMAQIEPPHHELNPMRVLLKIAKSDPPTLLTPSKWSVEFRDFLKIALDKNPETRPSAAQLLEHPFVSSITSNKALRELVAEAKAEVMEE

One may read the IC50 as the midpoint of a concentration-inhibition curve. `COc1ccc2cc(-c3c(-c4ccncc4)nc(-c4ccc(S(C)(=O)=O)cc4C)n3C)ccc2c1` [SB-633825 (3), SB-633825]: the values for the half-inhibitory concentration (IC50) in assay [1], in assay [2] and in assay [3] were 66 nM, 3.5 nM and 150 nM, respectively.
As a reminder, the ΔTm is the change in melting temperature against a reference sample. As usually defined, the EC50 is the concentration that produces a half-maximal response. Low readings indicate greater potency, high ones weaker potency. Regarding `Cc1cc(F)ccc1CNC(=O)Nc1ccc2cc1OCCOCCNc1ccn3ncc-2c3n1` [compound 22], the results for the 50% inhibitory concentration (IC50) in assay [4] and in assay [8] were 3130 ± 930 nM and 3160 ± 670 nM, respectively. Besides, the shift in melting temperature (ΔTm) at 10 µM is 3.7 °C in assay [5] and 8.3 °C in assay [7]. This compound also had a half-maximal effective concentration (EC50) in assay [6] of more than 50000 nM.
As to `Cc1cc(C(F)(F)F)ccc1CNC(=O)Nc1ccc2cc1OCCOCCNc1ccn3ncc-2c3n1` [compound 25], the IC50 in assay [4] came to 2690 ± 510 nM; in assay [8], 1070 ± 110 nM. Also, the shift in melting temperature (ΔTm) at 10 µM in assay [5] stood at 3.8 °C; in assay [7] it was 9 °C. Besides, the EC50 in assay [6] is more than 50000 nM.
